Where two headings read alike, the source gives them in different places.
Experiments:
[1] = Blood levels and metabolic ratios of tamoxifen and its metabolites after two tamoxifen injections, with saline or morphine (LC-MS/MS); conditions: for Change of blood concentration, second vs first tamoxifen injection: saline co-injections
Protocol: Experiments were performed with 11- to 29-week-old female C57BL/6J mice (23 ± 4 g; Charles River, L'Arbresle, France). Animals were housed according to a 12-h light–dark cycle, at a temperature of 22°C ± 2°C and provided with food and water ad libitum. All procedures were performed in accordance with European directives (2010/63/EU) and were approved by the regional ethics committee and the French Ministry of Agriculture (license no. APAFIS#16827-2018092113192911 v4 to YG).
Statistical analysis was performed using GraphPad Prism 6 Software. […] Groups were compared using multiple t-tests.

[2] = read-out: Km for morphine glucuronidation; mice; cited from earlier work
[3] = 4OH-tamoxifen glucuronidation assay in liver microsomes, with or without morphine; assay type: in vitro ADME; conditions: male, C57/BL6J, mouse
[4] = mice; cited from earlier work
[5] = humans; cited from earlier work
[6] = tamoxifen 10 mg/kg i.p. at 0 and 48 h
[7] = three i.p. injections of morphine 10 mg/kg at 0, 1 and 2 h

With `CC/C(=C(\c1ccccc1)c1ccc(OCCNC)cc1)c1ccccc1` [N-desmethyltamoxifen] as the molecule, how does the “Change of blood concentration, second vs first tamoxifen injection” value (“Change of blood concentration, second” for short) [1, 6] read?
The value was “significant increase”.

And the “Change of blood concentration after tamoxifen + morphine vs first injection of tamoxifen alone” value ([1]; tamoxifen 10 mg/kg i.p. at 0 and 48 h, morphine 10 mg/kg i.p. at 48, 49 and 50 h)?
Its value is “Only a tendency”.

What about the “N-desmethyltamoxifen/tamoxifen ratio after morphine” value ([1]; tamoxifen + morphine 3 x 10 mg/kg i.p.) of the same molecule?
The value was “not altered”.

And the “N-desmethyltamoxifen/tamoxifen ratio, second vs first tamoxifen injection” value ([1]; tamoxifen twice, saline)?
The value was “no difference”.

Which “Presence in blood after 8 h” value (three i.p. injections of morphine 10 mg/kg) does the source give for `CN1CC[C@]23c4c5ccc(O)c4O[C@H]2[C@@H](O)C=C[C@H]3[C@H]1C5` [morphine, reference compound] here?
The value was “still present”.

And the “Time at which the highest blood concentration was reached” value [7]?
The value was 2 h.

And the Km [2]?
Its Km is 500 µM.

Which “Time at which the highest blood concentration was reached” value [7] does the source give for `CN1CC[C@]23c4c5ccc(O[C@@H]6O[C@H](C(=O)O)[C@@H](O)[C@H](O)[C@H]6O)c4O[C@H]2[C@@H](O)C=C[C@H]3[C@H]1C5` [M3G, morphine-3-glucuronide] here?
Its value is 2 h.

And the “Highest concentration in the blood” value (three i.p. injections of morphine 10 mg/kg at 0, 1 and 2 h, mean ± SEM)?
The value was 9,773 ± 1,274 pmol/ml.

Which Km at 20 s [3] does the source give for `CC/C(=C(\c1ccc(O)cc1)c1ccc(OCCN(C)C)cc1)c1ccccc1` [4OH-tamoxifen] here?
The Km at 20 s was 68 µM.

With `CC/C(=C(/c1ccc(OCCNC)cc1)c1ccc(O[C@@H]2O[C@H](C(=O)O)[C@@H](O)[C@H](O)[C@H]2O)cc1)c1ccccc1` [endoxifen-glucuronide] as the molecule, how does the “Change of blood concentration, second” value [1, 6] read?
The value was “did not vary significantly”.

What about the “Increase of endoxifen-glucuronide/endoxifen ratio, second vs first tamoxifen injection” value ([1]; tamoxifen 10 mg/kg i.p. twice, saline, t = 2 h) of the same molecule?
Its value is 3 fold.

For `CC/C(=C(\c1ccc(OCCN(C)C)cc1)c1ccc(O[C@H]2O[C@@H](C(=O)O)[C@H](O)[C@@H](O)[C@@H]2O)cc1)c1ccccc1` [4OH-tamoxifen-glucuronide], which “Change of blood concentration, second” value [1, 6] is on record?
Its value is “significant increase”.

What does the source list for `CC/C(=C(\c1ccccc1)c1ccc(OCCN(C)C)cc1)c1ccccc1` [tamoxifen]?
Half-life [4]: 6.8 h; Half-life [5]: 27 h

— paper PMC7046683 (Frontiers in Oncology, 2020)
